{"source": "patent US7884077B2", "about": "“Methods for the treatment of mood disorders” (The McLean Hospital Corporation, priority 2006, dated 2011)", "key": {"[1]": {"biological_target": "mu opiate receptors (Homo sapiens, UniProt P35372)", "sequence (P35372 whole entry)": "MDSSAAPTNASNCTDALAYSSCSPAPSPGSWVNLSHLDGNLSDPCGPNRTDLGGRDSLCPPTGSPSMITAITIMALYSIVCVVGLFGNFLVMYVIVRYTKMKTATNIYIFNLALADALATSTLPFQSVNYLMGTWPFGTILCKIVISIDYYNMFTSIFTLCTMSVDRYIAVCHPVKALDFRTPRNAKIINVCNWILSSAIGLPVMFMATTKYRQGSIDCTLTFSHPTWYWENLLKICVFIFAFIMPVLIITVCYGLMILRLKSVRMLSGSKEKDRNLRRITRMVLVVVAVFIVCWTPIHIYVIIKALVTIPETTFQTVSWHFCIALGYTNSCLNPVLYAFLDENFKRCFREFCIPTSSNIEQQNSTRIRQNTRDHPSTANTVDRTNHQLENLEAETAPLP", "settings": "Bidlack et al., 2000; cited from earlier work"}, "[2]": {"test_system": "sigma receptors", "settings": "Bidlack et al., 2000; cited from earlier work"}, "[3]": {"test_system": "human subjects who have been diagnosed with bipolar disorder and are acutely manic", "experiment": "Open-label cumulative-dosing clinical trial of pentazocine in acutely manic subjects", "format": "in vivo", "settings": "for YMRS mean: morning", "method": "A trial study was conducted to determine the effect of pentazocine on the mood of human subjects who have been diagnosed with bipolar disorder and are acutely manic. Ten subjects (7 male and 3 female) between the ages of 18 and 65 were enrolled in the study. All subjects were admitted to the hospital with a primary diagnosis of bipolar mania by DSMIV criteria. […] Subjects with a current history of substance abuse or a recent history of opiate dependence were excluded. All subjects were deemed competent to give informed consent by non-study physicians. After complete description of the study to the subjects, written informed consent was obtained.\nThe current study was undertaken in full compliance with federal requirements and with institutional review board approval. The study was designed as an open-label cumulative-dosing trial.\nThe three-day study consisted of pre-treatment, treatment, and post-treatment days with subjects rated in the morning on all three days and multiple times on the day of treatment. On the treatment day, an initial 50 mg of pentazocine was given by mouth. A second dose was given two hours following the initial dose. Pentazocine was given as Talwin Nx (Sanofi-Synthlabo), consisting of 50 mg dose pentazocine with 0.5 mg naloxone (naloxone is added to limit the intra-venous abuse potential of this drug but is not absorbed when given by oral administration as used here).\nAssessment of manic symptoms by YMRS were made daily at the same time in the morning on all three days of the study. As the YMRS was designed to reflect the past 48 hours, it is not sensitive to acute symptomatic change (IsHak et al, 2002) YMRS and DSMIV criteria were used as the basis for constructing a scale to detect acute changes in manic symptoms (The Mania Acute Change Scale or MACS). […] The MACS scale is available online at www.mcleanhospital.org. The MACS, which includes items from the YMRS and a brief assessment of dysphoria/depression was given along with the YMRS in the morning on all three days of the study. In addition, the MACS was given hourly for 6 hours starting with the first dose of pentazocine. All investigator ratings were performed by investigator Beth Murphy, M. D., Ph.D. A self-rating scale designed to assess manic symptoms and medication side effects was completed by subjects whenever the MACS was given. Staff reports were reviewed, with special note of the duration of sleep and whether any ‘pro re nata’ (PRN) medications were required. Data were analyzed using a repeated measures ANOVA (SPSS 14.0)."}, "[4]": {"biological_target": "KOR (Homo sapiens, UniProt P41145)", "sequence (P41145 whole entry)": "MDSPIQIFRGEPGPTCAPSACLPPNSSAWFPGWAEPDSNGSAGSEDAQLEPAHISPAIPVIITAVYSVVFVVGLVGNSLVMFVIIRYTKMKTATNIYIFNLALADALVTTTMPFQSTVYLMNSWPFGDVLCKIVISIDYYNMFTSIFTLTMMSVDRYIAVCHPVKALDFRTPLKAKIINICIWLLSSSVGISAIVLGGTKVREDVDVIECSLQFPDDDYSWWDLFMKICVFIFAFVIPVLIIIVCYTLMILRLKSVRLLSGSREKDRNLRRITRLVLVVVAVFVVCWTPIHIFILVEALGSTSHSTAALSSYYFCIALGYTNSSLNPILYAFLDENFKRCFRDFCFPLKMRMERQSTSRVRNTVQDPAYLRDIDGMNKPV", "settings": "Zhu et al., 1997; cited from earlier work"}, "[5]": {"settings": "50 mg by mouth at Hour 0 and Hour 2, hourly ratings"}, "[6]": {"settings": "one hour after first 50 mg oral dose"}, "[7]": {"settings": "second 50 mg oral dose given at hour 2"}}, "note": "Entries after “also recorded” stand apart in the source; their conditions may differ.", "data": [{"smiles": "CC(C)=CCN1CCC2(C)c3cc(O)ccc3CC1C2C", "note": "(centres unmarked) [pentazocine]", "values": [{"measurement": "affinity and effects at mu opiate receptors relative to KOR", "setting": "[1]", "value": "lower affinity and weaker effects"}, {"measurement": "affinity and effects at sigma receptors relative to KOR", "setting": "[2]", "value": "lower affinity and weaker effects"}, {"measurement": "dysphoria", "setting": "[3]; 50 mg by mouth at Hour 0 and Hour 2", "value": "No dysphoria was reported; also recorded: None of the subjects complained of dysphoria"}, {"measurement": "effect on manic symptoms (total MACS score)", "setting": "[3]; [5]", "value": "manic symptoms decreased; also recorded: All subjects experienced an improvement in manic symptoms; also recorded: transient but substantial and statistically significant reduction in manic symptoms"}, {"measurement": "effect on psychotic symptoms (clinician rating)", "setting": "[3]; [5]", "value": "no significant changes in psychosis; also recorded: No subject experienced exacerbation of psychotic symptoms; also recorded: most subjects experienced a mild improvement in psychotic symptoms"}, {"measurement": "sedation (clinician rating, scale of 0-4)", "setting": "[3]; [5]", "value": "mild (half-point), nonsignificant, increases in sedation; also recorded: Sedation was low"}, {"measurement": "mean total MACS score", "setting": "[3]; Hour 0 (baseline), before first dose", "value": 20.1}, {"measurement": "mean total MACS score", "setting": "[3]; hour 2, when second dose was given", "value": 18.6}, {"measurement": "mean total MACS score", "setting": "[3]; hour 3, one hour after second 50 mg oral dose", "value": 11.0}, {"measurement": "mean change in total manic symptom ratings (MACS) from baseline", "setting": "[3]; [6]", "value": "−8.8"}, {"measurement": "mean total MACS score", "setting": "[3]; [6]", "value": 11.3}, {"measurement": "mean change in total manic symptom ratings from baseline (decrease)", "setting": "[3]; one hour after first 50 mg oral dose, MACS, 10 subjects", "value": 44, "unit": "%"}, {"measurement": "rebound in symptoms after treatment", "setting": "[3]; post-treatment day", "value": "no evidence of a rebound in symptoms after treatment"}, {"measurement": "YMRS mean", "setting": "[3]; post-treatment day", "value": "12.7 ± 8.4"}, {"measurement": "YMRS mean", "setting": "[3]; pretreatment day", "value": "23.6 ± 8.9"}, {"measurement": "fall in mean MACS score between hour 2 and hour 3", "setting": "[3]; [7]", "value": 7.6, "unit": "points"}, {"measurement": "fall in mean total manic symptom ratings (MACS) between hour 2 and hour 3", "setting": "[3]; [7]", "value": 41, "unit": "%"}, {"measurement": "YMRS mean", "setting": "[3]; treatment day", "value": "22.0 ± 6.9"}, {"measurement": "tolerability / side effects", "setting": "[3]; two 50 mg oral doses two hours apart", "value": "well-tolerated; also recorded: No subject experienced significant side effects; also recorded: No adverse effects, including psychotomimetic effects, were observed or reported"}, {"measurement": "efficacy at KOR", "setting": "[4]", "value": "partial agonist"}]}]}
